How the values were obtained:
MDCK cell line = experiment: MDCK cell permeability assay; format: in vitro ADME; conditions: 1 μM, 2 h; for Papp (A-B) (10^−6, cm/s): apical to basolateral; for Papp (B-A) (10^−6, cm/s): basolateral to apical
MCF-7 cell line = experiment: Antiproliferation assay; format: cell-based; conditions: 72 h, alamarBlue, highest concentration tested
CDK2/cyclin A [1] = target: T1, CDK2/cyclin A (Homo sapiens, UniProt P24941); experiment: Reaction Biology 33P-ATP filter-binding kinase assay, CDK2/cyclin A; format: biochemical
HSP90 = experiment: Test against HSP90; conditions: data not shown
CDK2 = CDK2 (Homo sapiens, UniProt P24941); experiment: DiscoverX kinase binding assay for Kd; conditions: for better binding affinity for CDK2 compared to screening hit 3: relative to 3
CDK complexes = experiment: Reaction Biology single-dose kinase profiling of CDK complexes; format: biochemical; conditions: all tested CDK complexes
CDK2/cyclin A [2] = target: T1, CDK2/cyclin A; experiment: CDK2/cyclin A enzyme assay; format: biochemical; conditions: Tables 1 and 2
CDK2/cyclin E = CDK2/cyclin E (Homo sapiens, UniProt P24941); experiment: Reaction Biology 33P-ATP filter-binding kinase assay, CDK2/cyclin E; format: biochemical

Cc1nn(-c2ccccn2)c2c1C(=O)CC(C)(C)C2Br (stereo not shown) [Compound 3, 7-Bromo-3,6,6-trimethyl-1-(pyridin-2-yl)-6,7-dihydro-1H-indazol-4(5H)-one]
Papp (A-B) (10^−6, cm/s) (MDCK cell line): 20.1 10^−6, cm/s
Papp (B-A) (10^−6, cm/s) (MDCK cell line): 9.52 10^−6, cm/s
antiproliferative activities against MCF-7 cell line, none up to (MCF-7 cell line): > 200 µM
IC50 (CDK2/cyclin A [1]): 86 nM
activity against HSP90 (HSP90): did not exhibit any activity
Kd (CDK2): 15000 nM

Cc1nn(-c2ccccn2)c2c1C(=O)CC(C)C2Br (stereo not drawn) [Compound 18b-cis, 7-Bromo-3,6-dimethyl-1-(pyridin-2-yl)-6,7-dihydro-1H-indazol-4(5H)-one]
Inhibition of CDK complexes at 1 μM, in words (CDK complexes): did not exhibit significant inhibitory activity

Cc1nn(-c2ccccn2)c2c1C(=O)CC(c1ccccc1)C2Br (stereo not shown) [Compound 18d, 7-Bromo-3-methyl-6-phenyl-1-(pyridin-2-yl)-6,7-dihydro-1H-indazol-4(5H)-one]
CDK2/cyclin A inhibitory activity, in words (CDK2/cyclin A [2]): inactive

Cc1nn(-c2ccccn2)c2c1NC(=O)CC(C)(C)C2 [Compound 19, 3,7,7-Trimethyl-1-(pyridin-2-yl)-4,6,7,8-tetrahydropyrazolo[4,3-b]azepin-5(1H)-one]
CDK2/cyclin A inhibitory activity, in words (CDK2/cyclin A [2]): inactive

Cc1nn(-c2ccccn2)c2c1C(=O)NCC(C)(C)C2 [Compound 20, 3,7,7-Trimethyl-1-(pyridin-2-yl)-5,6,7,8-tetrahydropyrazolo[4,3-c]azepin-4(1H)-one]
CDK2/cyclin A inhibitory activity, in words (CDK2/cyclin A [2]): inactive

Cc1nn(-c2ccccn2)c2c1C(=O)NCC(C)(C)C2Br (stereo not shown) [Compound 21, 8-Bromo-3,7,7-trimethyl-1-(pyridin-2-yl)-5,6,7,8-tetrahydropyrazolo[4,3-c]azepin-4(1H)-one]
CDK2/cyclin A inhibitory activity, in words (CDK2/cyclin A [2]): moderately active

Cc1nn(-c2ccccn2)c2c1C(O)CC(C)(C)C2Br (stereo not shown) [Compound 22, 7-Bromo-3,6,6-trimethyl-1-(pyridin-2-yl)-4,5,6,7-tetrahydro-1H-indazol-4-ol]
CDK2/cyclin A inhibitory activity, in words (CDK2/cyclin A [2]): weak inhibitory activity

Cc1nn(-c2ccccn2)c2c1/C(=N/O)CC(C)(C)C2Br (stereo not shown) [Compound 23, 7-Bromo-3,6,6-trimethyl-1-(pyridin-2-yl)-6,7-dihydro-1H-indazol-4(5H)-one Oxime]
CDK2/cyclin A inhibitory activity, in words (CDK2/cyclin A [2]): weak inhibitory activity

Cc1cccnc1-n1nc(C)c2c1CC(C)(C)C(Br)C2=O (stereo not shown) [Compound 40, 5-Bromo-3,6,6-trimethyl-1-(3-methylpyridin-2-yl)-6,7-dihydro-1H-indazol-4(5H)-one]
CDK2/cyclin A inhibitory activity, in words (CDK2/cyclin A [2]): low activities

Cc1nn(-c2ncccc2C(F)(F)F)c2c1C(=O)CC(C)(C)C2Br (stereo not shown) [Compound 46, 7-Bromo-3,6,6-trimethyl-1-(3-(trifluoromethyl)pyridin-2-yl)-6,7-dihydro-1H-indazol-4(5H)-one]
CDK2/cyclin A inhibitory activity, in words (CDK2/cyclin A [2]): low activities

Cc1nn(-c2ncccc2C(F)(F)F)c2c1C(=O)C(Br)C(C)(C)C2 (stereo not shown) [Compound 47, 5-Bromo-3,6,6-trimethyl-1-(3-(trifluoromethyl)pyridin-2-yl)-6,7-dihydro-1H-indazol-4(5H)-one]
CDK2/cyclin A inhibitory activity, in words (CDK2/cyclin A [2]): low activities

Cc1nn(-c2nccs2)c2c1C(=O)CC(C)(C)C2Br (stereo not shown) [Compound 53, 7-Bromo-3,6,6-trimethyl-1-(thiazol-2-yl)-6,7-dihydro-1H-indazol-4(5H)-one]
antiproliferative activities against MCF-7 cell line, none up to (MCF-7 cell line): > 200 µM
IC50 (CDK2/cyclin A [1]): 61.9 nM
IC50 (CDK2/cyclin E): 2 nM
better binding affinity for CDK2 compared to screening hit 3 (CDK2): 3 fold

Cc1nn(-c2ccncn2)c2c1C(=O)CC(C)(C)C2Br (stereo not shown) [Compound 59, 7-Bromo-3,6,6-trimethyl-1-(pyrimidin-4-yl)-6,7-dihydro-1H-indazol-4(5H)-one]
antiproliferative activities against MCF-7 cell line, none up to (MCF-7 cell line): > 200 µM
IC50 (CDK2/cyclin A [1]): 120 nM
better binding affinity for CDK2 compared to screening hit 3 (CDK2): 3 fold

COCCc1ccc(OCC(O)CNC(C)C)cc1 (stereo not shown) [Metoprolol, metoprolol, reference compound]
Papp (A-B) (10^−6, cm/s) (MDCK cell line): 26.9 10^−6, cm/s
Papp (B-A) (10^−6, cm/s) (MDCK cell line): 21.2 10^−6, cm/s

Source: publication PMC7954990 (European journal of medicinal chemistry, 2021)
